{"source": "patent US10076511B2", "about": "“Bisamide derivative of dicarboxylic acid as an agent for stimulating tissue regeneration and recovery of diminished tissue function” (TREAMID GmbH, priority 2015, dated 2018)", "key": {"male CBA/CaLac mice": {"tested_on": "male CBA/CaLac mice", "test": "Chronic toxic hepatitis model (CCl4), liver histology", "assay_type": "in vivo, mouse", "details": "Day 28; Treamid 10 mg/kg intragastrically Day 14-27", "protocol": "Chronic toxic hepatitis was induced in the male CBA/CaLac mice by intragastric administration of a 20% carbon tetrachloride (CCl4) solution in olive oil in a volume of 0.2 ml/mouse on Days 0, 3, 7, 10, 14, and 17 of the study. Treamid was administered at a dose of 10 mg/kg intragastrically once daily, every day from Day 14 to Day 27 of the study. On day 28, the animals were euthanized in a CO2 chamber and a liver biopsy sample was taken for histological analysis.\nFor histological examination, the liver was fixed in a 10% neutral formalin solution and then poured into paraffin by the standard method. Deparaffined sections of a thickness of 5 μm were stained: 1) with hematoxylin and eosin according to the standard procedure for routine histological examination; and 2) with picrofuxin for the calculation of the area of connective tissue, using a graphic data processing software."}, "male C57BL/6 mice": {"tested_on": "male C57BL/6 mice", "test": "Streptozotocin-induced pancreatic lesion model", "assay_type": "in vivo, mouse", "details": "Day 28; Treamid 1 mg/kg"}, "male Wistar rats": {"tested_on": "male Wistar rats", "test": "Sperm motility in asthenospermia simulated with Etoposide", "assay_type": "in vivo, rat", "details": "for percentage of motile sperm cells: Treamid 5.0 mg/kg for 10 days after administration of Etoposide; for The number of motile sperm cells (in %): 5 days before and 5 days after Etoposide (preventive course), Treamid 5.0 mg/kg", "protocol": "The use of the drug that induces an increase in the free radical level was due to the fact that according to modern ideas, the direct cause of asthenospermia is oxidative stress (Kao S. H. et. al. Increase of oxidativestress in human sperm with lower motility. Fertil. and Steril. 2008; 89: 5: 1183-1190).\nThe experiments were performed on 50 male Wistar rats (3 months of age). Etoposide was administered once intravenously at the maximum tolerated dose of 30 mg/kg.\nThe effectiveness of Treamid was assessed by the percentage of motile sperm forms isolated from the epididymis.\nIn the first series, the results of the studies were compared with those obtained for administration of the reference drug, Speman, that was administered intragastrically at a dose of 140 mg/kg."}, "male rats": {"tested_on": "male rats", "test": "Morphological and functional state of spermatogenic tissue after Paclitaxel", "assay_type": "in vivo, rat", "protocol": "The latter was simulated by a single injection of cytostatic drug Paclitaxel (Mitotax, Dr. Reddy's, India) to male rats (3 months of age). The choice of the drug was due to the fact that it is one of the medications that damage the precursors of spermatogenesis—stem cells.\nPaclitaxel was administered to the animals of the control and test groups once intravenously at the maximum tolerated dose of 7.6 mg/kg. Treamid was administered to the animals of the experimental groups intragastrically at a dose of 5 mg/kg in the form of a suspension in 2% starch mucus for 15 days a month after the administration of Paclitaxel. The control animals received an equivalent volume of the solvent (2% starch mucus), instead of the test compound.\nMorphological and functional state of the spermatogenic tissue was assessed to obtain an additional confirmation of the efficiency to stimulate the formation of committed stem cells.\nIt was estimated by the following indices: the number of cells in the spermatogonial population, the average number of Sertoli cells, the degree of maturity of the spermatogenic layer, the number of Leydig cells, the endocrine activity of the testis, the total number of sperm cells per epididymis, and the percentage of motile sperm forms. For this, in euthanasia on Day 45, Day 65, and Day 90 of the experiment, the tail part of epididymis and testis were isolated at dissection. The epididymis of one testis was homogenized in a warm (37° C.) physiological saline, and the number of motile sperm forms was determined in the suspension of the epididymis cells. The total number of sperm cells per epididymis (TNS) was calculated by using a homogenized cell suspension of the second epididymis in a dosage amount of physiological saline using a leukocyte-count pipette and Goryaev chamber.\nA morphological assay of the testes of rats was performed by fixation thereof in Carnoy's fluid and by preparing paraffin sections. Deparaffined sections of a thickness of 5 μm were stained with hematoxylin-eosin. The number of cells in the spermatogonial population, the number of Sertoli cells, and the number of Leydig cells were counted on the testis section, and the endocrine activity of Leydig cells was determined. The degree of maturity of the spermatogenic layer was calculated based on the count of Sertoli cells. The calculation was carried out according to the formula for the experimental groups: y=5.95-0.18x; for the group of intact animals: y=6.7-0.23x, where x is the average number of Sertoli cells in the cross-section of the convoluted seminiferous tubule, and y is the index characterizing the degree of maturity of the spermatogenic layer. When choosing the time for studies, the duration of spermatogenesis in rats was taken into account, which was one and a half months. The duration of 45 and 65 days after administration of Paclitaxel corresponds to the manifestation of effects on the spermatogonial cell population.\nThe criteria for stimulation of the process of regeneration of the testicular tissue were: an increase in the number of cells in the spermatogonial populations, the number of Sertoli cells, a decrease in the degree of maturity of the spermatogenic layer, and an increase in the productivity of spermatogenesis. The criterion of the functional activity of sperm cells is the percentage of their motile forms."}, "[1]": {"details": "Day 45 after Paclitaxel, Treamid 5 mg/kg"}, "[2]": {"details": "Day 65 after Paclitaxel, Treamid 5 mg/kg"}, "[3]": {"details": "Day 90 after Paclitaxel, Treamid 5 mg/kg"}}, "note": "“And” between values parts separate entries of the source, which are not always exact repeats. Equal entries are not always repeated.", "data": [{"smiles": "O=C(CCCC(=O)NCCc1ncc[nH]1)NCCc1ncc[nH]1", "note": "[Treamid]", "values": [{"measurement": "content of connective tissue in the liver compared to the pathological control", "setting": "male CBA/CaLac mice", "result": "markedly reduced"}, {"measurement": "histological pattern of the liver", "setting": "male CBA/CaLac mice", "result": "did not differ from that of the intact control"}, {"measurement": "Total collagen (mg/ml) in the pancreas", "setting": "male C57BL/6 mice", "result": "41 ± 4", "unit": "mg/mL"}, {"measurement": "Type I collagen (ng/ml) in the pancreas", "setting": "male C57BL/6 mice", "result": "665 ± 55*• ng/ml"}, {"measurement": "percentage of motile sperm cells", "setting": "male Wistar rats; group M ± m", "result": "71.01 ± 1.80", "unit": "%"}, {"measurement": "The number of motile sperm cells (in %)", "setting": "male Wistar rats; group X ± m, Speman 140 mg/kg", "result": "79.83 ± 1.88#*⋄ %"}, {"measurement": "The number of motile sperm cells (in %)", "setting": "male Wistar rats; individual animals, Speman 140 mg/kg intragastrically", "result": "77.42% and 79.09% and 82.72% and 74.67% and 85.26%"}, {"measurement": "percentage of motile sperm cells", "setting": "male Wistar rats; individual males", "result": "74.55% and 69.44% and 70.20% and 65.52% and 75.34%"}, {"measurement": "Number of motile sperm cells (%)", "setting": "male rats; [1]", "result": "71.57 ± 3.19", "unit": "%"}, {"measurement": "The average number of Sertoli cells (abs.)", "setting": "male rats; [1]", "result": "1.61 ± 0.03", "unit": "abs."}, {"measurement": "The average number of spermatogonia (abs.)", "setting": "male rats; [1]", "result": "14.56 ± 0.19", "unit": "abs."}, {"measurement": "The degree of maturity of the spermatogenic layer (standard units)", "setting": "male rats; [1]", "result": "5.66 ± 0.01", "unit": "standard units"}, {"measurement": "Total number of sperm cells (million)", "setting": "male rats; [1]", "result": "146.00 ± 9.53", "unit": "million"}, {"measurement": "growth of percentage of motile sperm forms in comparison with the control", "setting": "male rats; Day 65", "result": 32, "unit": "%"}, {"measurement": "increase of productivity of spermatogenesis (TNS) in comparison with the control", "setting": "male rats; Day 65", "result": 43, "unit": "%"}, {"measurement": "Endocrine activity of testes", "setting": "male rats; [2]", "result": "4.31 ± 0.24"}, {"measurement": "Number of Leydig cells", "setting": "male rats; [2]", "result": "9.48 ± 0.21"}, {"measurement": "Number of motile sperm cells (%)", "setting": "male rats; [2]", "result": "79.81 ± 1.61", "unit": "%"}, {"measurement": "The average number of Sertoli cells (abs.)", "setting": "male rats; [2]", "result": "2.30 ± 0.03", "unit": "abs."}, {"measurement": "The average number of spermatogonia (abs.)", "setting": "male rats; [2]", "result": "13.07 ± 0.28", "unit": "abs."}, {"measurement": "The degree of maturity of the spermatogenic layer (standard units)", "setting": "male rats; [2]", "result": "5.54 ± 0.00", "unit": "standard units"}, {"measurement": "Total number of sperm cells (million)", "setting": "male rats; [2]", "result": "145.20 ± 15.15", "unit": "million"}, {"measurement": "increase of productivity of spermatogenesis (TNS) in comparison with the control", "setting": "male rats; Day 90", "result": 46, "unit": "%"}, {"measurement": "Endocrine activity", "setting": "male rats; [3]", "result": "4.74 ± 4.04"}, {"measurement": "Number of motile sperm cells (%)", "setting": "male rats; [3]", "result": "67.80 ± 1.14", "unit": "%"}, {"measurement": "The average number of Leydig cells", "setting": "male rats; [3]", "result": "9.93 ± 0.08"}, {"measurement": "The average number of Sertoli cells (abs.)", "setting": "male rats; [3]", "result": "2.10 ± 0.06", "unit": "abs."}, {"measurement": "The average number of spermatogonia (abs.)", "setting": "male rats; [3]", "result": "14.43 ± 0.21", "unit": "abs."}, {"measurement": "The degree of maturity of the spermatogenic layer (standard units)", "setting": "male rats; [3]", "result": "5.57 ± 0.01", "unit": "standard units"}, {"measurement": "Total number of sperm cells (million)", "setting": "male rats; [3]", "result": "186.20 ± 12.74", "unit": "million"}]}]}
